Test results from patent publication US20090246134A1, “COMPOSITIONS AND METHODS FOR MODULATING GATED ION CHANNELS” (PainCeptor Pharma Corporation, priority 2007, published 2009).

Key:
[1] = molecular target: T1, ASIC1a (Homo sapiens, UniProt P78348); experiment: Calcium-imaging (calcium mobilization, FLIPR) assay in ASIC1a expressing HEK293 cells; type: cell-based; parameters: host or cells: HEK293; settings: n=3-7, compounds not radiolabelled
T1 sequence (P78348 1-528): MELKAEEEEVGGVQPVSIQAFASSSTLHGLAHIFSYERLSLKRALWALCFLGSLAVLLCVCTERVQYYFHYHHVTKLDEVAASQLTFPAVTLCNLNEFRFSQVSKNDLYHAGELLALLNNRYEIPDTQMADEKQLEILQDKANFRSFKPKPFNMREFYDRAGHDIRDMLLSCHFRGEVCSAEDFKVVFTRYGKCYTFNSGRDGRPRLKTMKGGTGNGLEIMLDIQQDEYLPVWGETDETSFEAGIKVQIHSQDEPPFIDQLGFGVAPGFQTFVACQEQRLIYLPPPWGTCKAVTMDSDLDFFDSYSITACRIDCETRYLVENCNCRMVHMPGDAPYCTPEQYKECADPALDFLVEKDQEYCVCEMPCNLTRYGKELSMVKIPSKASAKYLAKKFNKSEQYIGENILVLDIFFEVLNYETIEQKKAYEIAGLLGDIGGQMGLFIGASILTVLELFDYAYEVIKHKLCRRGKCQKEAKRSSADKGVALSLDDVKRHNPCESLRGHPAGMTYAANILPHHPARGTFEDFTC
Experimental: ASIC1a expressing HEK293 cells are grown in culture medium (DMEM with 10% FBS), in polystyrene culture flasks ([…]) at 37° C. in a humidified atmosphere of 5% CO2. Confluency of cells should be 80-90% on day of plating. Cells are rinsed with 10 ml of PBS and re-suspended by addition of culture medium and trituration with a 25 ml pipette.
The cells are seeded at a density of approximately 1×10^6 cells/ml (100 μl/well) in black-walled, clear bottom, 96-well plates pre-treated with 10 mg/l poly-D-lysin (75 μl/well for ≧30 min). Plated cells were allowed to proliferate for 24 h before loading with dye.
Fluo-4/AM (1 mg, Molecular Probes) is dissolved in 912 μl DMSO. The Fluo-4/AM stock solution (1 mM) is diluted with culture medium to a final concentration of 2 μM (loading solution).
The culture medium is aspirated from the wells, and 50 μl of the Fluo-4/AM loading solution is added to each well. The cells are incubated at 37° C. for 30 min.
After the loading period, the loading solution is aspirated and the cells are washed twice with 100 μl modified Assay Buffer (145 mM NaCl, 5 mM KCl, 5 mM CaCl2, 1 mM MgCl2, 10 mM HEPES, pH 7.4) to remove extracellular dye. Following the second wash, 100 μl modified Assay Buffer is added to each well and the fluorescence is measured in FLIPR™ or FlexStation™ (Molecular Devices, USA), or any other suitable equipment known to the skilled in the art.
Temperature: Room temperature (20-22° C.)
First addition: 50 μl test solution at a rate of 30 μl/sec and a starting height of […]
Second addition: 50 μl MES solution (20 mM, 5 mM final concentration) at a rate of 35 μl/sec and a starting height of 150 μl.
Reading intervals: pre-incubation—10 sec×7 and 3 sec×3 antagonist phase—3 sec×17 and 10 sec×12
Addition plates (compound test plate and MES plate) are placed on the right and left positions in the FLIPR tray, respectively. Cell plates are placed in the middle position and the ASIC1a program is effectuated. FLIPR will then take the appropriate measurements in accordance with the interval settings above. Fluorescence obtained after stimulation is corrected for the mean basal fluorescence (in modified Assay Buffer).
The MES-induced peak calcium response, in the presence of test substance, is expressed relatively to the MES response alone. Test substances that block the MES-induced calcium response are re-tested in triplicates. Confirmed hits are picked for further characterization by performing full dose-response curves to determine potency of each hit compound as represented by the IC50 values (i.e., the concentration of the test substance which inhibits 50% of the MES-induced calcium response).
It is noted that the compounds below are not radiolabelled.

[2] = Plasma composition analysis, parent compound and metabolites by MS; type: in vivo; settings: rat plasma; for Plasma Component: P-OH: Compound G: detected but not confirmed (footnote a)
Experimental: Rats receive compounds (5 mg/kg) dissolved in HPβCD 15%, dextrose 2.5%, pH 5 by intravenous (i.v). route or (25-30 mg/kg) dissolved in HPβCD 15%, dextrose 2.5%, […] (s.c.) route or (50-150 mg/kg) dissolved in HPβCD 15%, dextrose 2.5%, pH 5 by oral (p.o.) route. After the treatment, approximately 100 μl of blood sample is collected and the accurate bleeding time is recorded for each sample. Each blood sample is collected into Microvette blood collection tube containing anticoagulant lithium heparin. Following collection, the samples are centrifuged at […] for 15 minutes (to avoid haemolysis) and the plasma obtained from each is recovered and stored frozen (at −80° C.) pending analysis. Frozen samples are shipped on dry ice to quantify drug concentration within plasma after extraction procedure as previously described in Example 13.

[3] = molecular target: T1, ASIC1a; experiment: Whole cell patch clamp in heterologous expression system (CHO cells); type: cell-based; parameters: expressed in transfected cells; host or cells: CHO cells
Experimental: Another example of an in vitro assessment method consists of using mammalian heterologous expression systems, which are known to the skilled in the art, and include a variety of mammalian cell lines such as COS, HEK, e.g., HEK293 and/or CHO, cells. Cell lines are transfected with gated ion channel(s) and used to perform electrophysiology as follows:
All experiments are performed at room temperature (20-25° C.) in voltage clamp using conventional whole cell patch clamp methods (Neher, E., et al. (1978) Pfluegers Arch 375:219-228).
The amplifier used is the EPC-9 (HEKA-electronics, Lambrect, Germany) run by a Macintosh G3 computer via an ITC-16 interface. Experimental conditions are set with the Pulse-software accompanying the amplifier. Data is low pass filtered and sampled directly to hard-disk at a rate of 3 times the cut-off frequency.
Pipettes are pulled from borosilicate glass using a horizontal electrode puller (Zeitz-lnstrumente, Augsburg, Germany). The pipette resistances are 2-3 MOhms in the salt solutions used in these experiments. The pipette electrode is a chloridized silver wire, and the reference is a silver chloride pellet electrode (In Vivo Metric, Healdsburg, USA) fixed to the experimental chamber. The electrodes are zeroed with the open pipette in the bath just prior to sealing.
Coverslips with the cells are transferred to a 15 μl experimental chamber mounted on the stage of an inverted microscope (IMT-2, Olympus) supplied with Nomarski optics. Cells are continuously superfused with extracellular saline at a rate of 2.5 ml/min. After giga-seal formation, the whole cell configuration is attained by suction. The cells are held at a holding voltage of −60 mV and at the start of each experiment the current is continuously measured for 45 s to ensure a stable baseline. […] Current amplitudes are measured at the peak of the responses, and effect of the compounds is calculated as the amplitude at compound equilibrium divided by the amplitude of the current evoked by the pulse just before the compound was included. […]

[4] = tested on: CFA-induced change in weight bearing in Sprague-Dawley rats; experiment: CFA model of chronic inflammatory pain, hindpaw weight bearing; type: in vivo, rat; settings: 24 h after CFA; 60 min after drug; Compound A 5, 10, 20 mg/kg i.p.; Compound H 10, 30, 60 mg/kg; morphine 3, 6, 10 mg/kg; n=7-8
Experimental: Rats (body weight 260-300 g) were given a s.c. injection of CFA (50% in saline, 100 μl, Sigma) into the plantar surface of the hindpaw under brief halothane anaesthesia. After 24 h, they were then tested for hindpaw weight bearing responses, as assessed using an Incapacitance Tester (Linton Instrumentation, UK), (Zhu et al., 2005). The instrument incorporates a dual channel scale that separately measures the weight of the animal distributed to each hindpaw. While normal rats distribute their body weight equally between the two hindpaws (50-50), the discrepancy of weight distribution between an injured and non-injured paw is a natural reflection of the discomfort level in the injured paw (nocifensive behavior). The rats were placed in the plastic chamber designed so that each hindpaw rested on a separate transducer pad. […] For each rat, three readings from each paw were taken and then averaged. Side-to-side weight bearing difference was calculated as the average of the absolute value of the difference between two hindpaws from three trials (right paw reading-left paw reading).
Hindpaw weight bearing responses were measured in male Sprague-Dawley rats for 2-3 days prior to being given a hindpaw injection of CFA. Twenty-four hours later baseline responses were measured and rats were then administered Compound A (5, 10 and 20 mg/kg, i.p.), Compound H (10, 30 and 60 mg/kg) and morphine (3, 6 and 10 mg/kg). Weight bearing responses were then measured at 30, 60 and 120 min after drug or vehicle injection (data shown at 60 min.). […] All groups n=7-8.

[5] = IV 5 mg/kg (table of Compounds G and J)
[6] = PO 50 mg/kg (table of Compounds G and J)

Row | SMILES | IC50 [1] [nM] | Plasma Component: N-desEt ([2]; IV 5 mg/kg) | Plasma Component: O-desMe [2, 5] | Plasma Component: P-OH ([2]; IV 5 mg/kg) | Plasma Component: N-desEt ([2]; PO 50 mg/kg) | Plasma Component: O-desMe [2, 6] | Plasma Component: P-OH ([2]; PO 50 mg/kg) | further results
1 | COc1ccc(F)cc1-c1cc2c(c3c1CCN(C)C3)NC(=O)/C2=N/O [Compound A (minor Z isomer isolated), 5-(5-fluoro-2-methoxyphenyl)-6,7,8,9-tetrahydro-3-(hydroxyimino)-8-methyl-1H-pyrrolo[3,2-h]isoquinoline-2(3H)-one] | 1000 |  |  |  |  |  |  | 
2 | CCN1CCc2c(-c3cc(Cl)ccc3OC)cc3c(c2C1)NC(=O)/C3=N/O [Compound G, 5-(5-chloro-2-methoxyphenyl)-6,7,8,9-tetrahydro-3-(hydroxyimino)-8-ethyl-1H-pyrrolo[3,2-h]isoquinoline-2(3H)-one] | 300 | Small | Small | Small ^a | Small | Small | Small ^a | 
3 | CCN1CCc2c(-c3ccccc3OC)cc3c(c2C1)NC(=O)/C3=N/O [Compound J, 5-(2-methoxy-phenyl)-6,7,8,9-tetrahydro-3-(hydroxyimino)-8-ethyl-1H-pyrrolo[3,2-h]isoquinoline-2(3H)-one] | 700 | Small | Small | Small | Small | Small | Small | 
4 | CN1CCc2c(-c3cc(F)ccc3O)cc3c(c2C1)NC(=O)C3=NO [Compound L, 5-(5-Fluoro-2-hydroxyphenyl)-3-(hydroxyimino)-8-methyl-6,7,8,9-tetrahydro-1H-pyrrolo[3,2-h]isoquinolin-2(3H)-one] | 800 |  |  |  |  |  |  | 
5 | N=C(N)NC(=O)c1nc(Cl)c(N)nc1N [amiloride, reference compound] |  |  |  |  |  |  |  | human ASIC1a pH-evoked response [3]: reduce the human ASIC1a pH-evoked response in CHO cells in a dose-dependent manner
6 | CN1CC[C@]23c4c5ccc(O)c4O[C@H]2[C@@H](O)C=C[C@H]3[C@H]1C5 [morphine, reference compound] |  |  |  |  |  |  |  | CFA-induced change in weight bearing compared with vehicle [4]: marked dose-dependent attenuation
